Results: EP0915086A1, “PHENYLSULFONAMIDE DERIVATIVES” (ONO PHARMACEUTICAL CO., LTD., priority 1996, dated 1997)
Where a name gives a salt, the structure may show the parent alone.

Columns and labels:
gelatinase A = target: T1, gelatinase A (Homo sapiens, UniProt P08253); assay: Inhibitory activity against gelatinase A; assay type: biochemical; details: progelatinase A from human normal skin dermal fibroblasts (HNDF), activated with APMA; substrate MOCAc-Pro-Leu-Gly-A2pr(Dnp)-Ala-Arg-NH2; 37 °C, 20 minutes; fluorescence Ex 328 nm, Em 393 nm
T1 construct: endogenous in cells; host or cells: human normal skin dermal fibroblasts (HNDF)
T1 sequence (P08253 110-660): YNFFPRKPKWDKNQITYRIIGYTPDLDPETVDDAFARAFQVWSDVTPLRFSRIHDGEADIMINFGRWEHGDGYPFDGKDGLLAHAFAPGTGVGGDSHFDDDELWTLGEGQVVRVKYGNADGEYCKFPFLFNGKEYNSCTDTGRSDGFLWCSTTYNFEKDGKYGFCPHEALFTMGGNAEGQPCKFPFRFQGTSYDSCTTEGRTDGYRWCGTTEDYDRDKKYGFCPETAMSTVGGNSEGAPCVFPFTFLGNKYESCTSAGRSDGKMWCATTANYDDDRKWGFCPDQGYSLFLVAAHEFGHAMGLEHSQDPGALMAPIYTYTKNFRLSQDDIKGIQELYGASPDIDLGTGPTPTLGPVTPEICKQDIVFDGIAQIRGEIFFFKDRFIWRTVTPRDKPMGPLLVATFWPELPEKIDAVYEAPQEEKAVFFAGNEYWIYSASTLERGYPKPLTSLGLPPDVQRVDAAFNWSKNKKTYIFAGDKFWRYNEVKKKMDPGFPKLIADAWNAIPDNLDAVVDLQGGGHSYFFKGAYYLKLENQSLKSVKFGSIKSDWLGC
Method: Progelatinase A (7 µl; in assay buffer (90 µl)) was purified from human normal skin dermal fibroblasts (HNDF). It was activated by addition of 10 mM p-aminophenyl mercuric acetate (APMA) (10 µl) and preincubation at 37 °C for 1 hour. The solution (890 µl; the final concentration was […]) of the synthetic substrates (MOCAc-Pro-Leu-Gly-A2pr(Dnp)-Ala-Arg-NH2) was mixed with various concentrations of the test compound or a solution without it (10 µl) and the mixture was preincubated at 37 °C for 5 minutes. The activated gelaninase A prepared above (7 µl/tube, 100 µl) was added to the reaction mixture and further incubated at 37 °C for 20 minutes. The enzyme reaction was terminated by addition of 0.1 M sodium acetate buffer (2ml; pH 4.0).
The IC50 value was determined by measuring the fluorescent intensity (Ex = 328 nm, and Em = 393 nm) in this solution.

collagenase = target: T2, collagenase (Homo sapiens, UniProt P03956); assay: Inhibitory activity against collagenase; assay type: biochemical; details: procollagenase from human normal dermal fibroblasts (HNDF), activated with trypsin; substrate Ac-Pro-Leu-Gly-[2-mercapto-4-methyl-pentanoyl]-Leu-Gly-OEt; 26 °C, 10 minutes; absorption at 324 nm
T2 construct: endogenous in cells; host or cells: human normal dermal fibroblasts (HNDF)
T2 sequence (P03956 100-469): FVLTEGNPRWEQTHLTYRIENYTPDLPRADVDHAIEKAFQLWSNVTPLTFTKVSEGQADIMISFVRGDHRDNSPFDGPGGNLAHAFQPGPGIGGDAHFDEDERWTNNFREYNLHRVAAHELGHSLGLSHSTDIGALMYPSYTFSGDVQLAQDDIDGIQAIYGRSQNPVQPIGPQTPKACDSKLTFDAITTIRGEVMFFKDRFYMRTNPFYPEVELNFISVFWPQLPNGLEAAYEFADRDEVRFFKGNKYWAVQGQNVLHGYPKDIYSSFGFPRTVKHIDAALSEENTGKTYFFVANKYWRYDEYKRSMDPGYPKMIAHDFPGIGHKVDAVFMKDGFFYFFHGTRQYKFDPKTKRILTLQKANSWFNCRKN
Method: Trypsin (45 µl; 1 mg/ml) was added to a solution of procollagenase (5 µM) purified from human normal dermal fibloblasts (HNDF) in assay buffer (105 µl). The solution was preincubated in order to activate the enzyme at 37°C for 1 minute.
Trypsin was inactivated by addition of soybean trypsin inhibitor (SBTI; 50 µl). Solutions (20 µl) of synthetic substrate (Ac-Pro-Leu-Gly-[2-mercapto-4-methyl-pentanoyl]-Leu-Gly-OEt) (105 µl; the final concentration […]) with or without various concentrations of the test compound were preincubated for 5 minutes at 26 °C.
To the solutions, activated enzyme (75 µl/tube, 50 µl) prepared above was added. The mixtures were incubated at 26 °C for 10 minutes.
Absorption at 324 nm was measured at 40 points during the 10 minutes.
Vmax value was determined as measured value in 30 points therein.

| Compound | IC50 (gelatinase A) | IC50 (collagenase) |
| --- | --- | --- |
| Cc1ccc(C=Cc2ccc(S(=O)(=O)N[C@H](C)C(=O)O)cc2)cc1 (stereo in doubt) [Example 3(1), N-[4-[2-(4-Methylphenyl)ethenyl]phenylsulfonyl]-D-alanine] | 6.2 nM | – |
| Cc1ccc(C#Cc2ccc(S(=O)(=O)N[C@H](C)C(=O)O)cc2)cc1 [Example 2(1), N-[4-[2-(4-Methylphenyl)ethynyl]phenylsulfonyl]-D-alanine] | 13 nM | – |
| Cc1ccc(C#Cc2ccc(S(=O)(=O)N[C@H](Cc3c[nH]c4ccccc34)C(=O)O)cc2)cc1 [Example 2(4), N-[4-[2-(4-Methylphenyl)ethynyl]phenylsulfonyl]-D-tryptophan] | 6.5 nM | – |
| O=C(O)[C@@H](Cc1c[nH]c2ccccc12)NS(=O)(=O)c1ccc(C#Cc2ccc(-n3ccnc3)cc2)cc1 [Example 2(18), N-[4-[2-(4-Imidazolylphenyl)ethynyl]phenylsulfonyl]-D-tryptophan] | 11 nM | – |
| CN(CCc1ccccc1)C(=O)CC[C@@H](NS(=O)(=O)c1ccc(C#Cc2ccc(-n3ccnc3)cc2)cc1)C(=O)O [Example 2(27), N-[4-[2-(4-Imidazolylphenyl)ethynyl]phenylsulfonyl]-N'-methyl-N'-(2-phenylethyl)-D-glutamine] | 3.3 nM | – |
| Cc1ccc(C#Cc2ccc(S(=O)(=O)N[C@H](C)C(=O)NO)cc2)cc1 [Example 6(4), N-Hydroxy-[N-[4-[2-(4-methylphenyl)ethynyl]phenylsulfonyl]-D-alanyl]amide] | 0.7 nM | – |

The next lines start with the values.

| IC50 (gelatinase A) | IC50 (collagenase) | Compound |
| --- | --- | --- |
| 1.2 nM | – | CCCC#Cc1ccc(S(=O)(=O)N[C@H](C)C(=O)NO)cc1 [Example 6(1), N-Hydroxy-[N-[4-(1-pentynyl)phenylsulfonyl]-D-alanyl]amide] |
| 0.2 nM | – | Cc1ccc(/C=C/c2ccc(S(=O)(=O)N[C@H](C)C(=O)NO)cc2)cc1 [Example 6(2), N-Hydroxy-[N-[4-[2-(4-methylphenyl)ethenyl]phenylsulfonyl]-D-alanyl]amide] |
| 2.4 nM | – | CCCCCC#Cc1ccc(S(=O)(=O)N[C@H](C)C(=O)NO)cc1 [Example 6(11), N-Hydroxy-[N-[4-[4-(1-heptynyl)]phenylsulfonyl]-D-alanyl]amide] |
| 0.8 nM | 63 nM | C#Cc1ccc(S(=O)(=O)N[C@H](CCC(=O)NCCc2ccccc2)C(=O)NO)cc1 [Example 6(17), N-Hydroxy-[N-(4-ethynyl)phenylsulfonyl-N'-(2-phenylethyl)-D-glutaminyl]amide] |
| – | 65 nM | C#Cc1ccc(S(=O)(=O)N[C@H](CCC(=O)NC(Cc2ccccc2)c2ccccc2)C(=O)NO)cc1 (stereo partly drawn) [Example 6(19), N-Hydroxy-[N-(4-ethynyl)phenylsulfonyl-N'-(1,2-diphenylethyl)-D-glutaminyl]amide] |
| 0.4 nM | – | C[C@H](C(=O)NO)N(C)S(=O)(=O)c1ccc(C#Cc2ccc(-n3ccnc3)cc2)cc1 [Example 10(3), N-Hydroxy-[N-methyl-N-[4-[2-[4-(1-imidazolyl)phenyl]ethynyl]phenylsulfonyl]-D-alanyl]amide hydrochloride] |
| 0.7 nM | – | CCCC#Cc1ccc(S(=O)(=O)N(C)[C@H](C)C(=O)NO)cc1 [Example 10(4)] |
| – | 290 nM | CC#Cc1ccc(S(=O)(=O)N(C)[C@H](C)C(=O)NO)cc1 [Example 10(13), N-Hydroxy-[N-methyl-N-[4-(1-propynyl)phenylsulfonyl]-D-alanyl]amide] |
| 7.5 nM | – | Cc1ccc(C#Cc2ccc(S(=O)(=O)N(C)[C@H](C)C(=O)NO)cc2)cc1 [Example 10, N-Hydroxy-[N-methyl-N-[4-[2-(4-methylphenyl)ethynyl]phenylsulfonyl]-D-alanyl]amide] |
